This note sets out measurements from US4067982A, “Aryl-substituted piperazinyl-alkylamino-uracils, -uracil ethers and -uracil thioethers as therapeutics” (priority 1976, dated 1978).

Like-named read-outs stand apart in the source and are kept apart here. Some results are limits rather than exact numbers.

The subject of data set [1] is mouse. The experiment in a line: Analgesic effect, thermal stimulation of the tail of the mouse. Type of data set: in vivo. The note with it: oral, 25% retardation, read-out: Retardation of the defense reaction upon thermal stimulation of the tail of the mouse by 25%. From the text: The analgesic effect was thereby determined as the delay in the reaction upon thermal stimulation of the tail of the mouse.

Data set [2] deals with mouse. The experiment in a line: SD50, sedation symptoms, mouse. Type of data set: in vivo.
Excerpt: b = Dose, at which at an average 50% of the mice show the following symptoms: inhibition of the spontaneous motility, sadation, muscle relaxation, loss of gripping and holding ability on a horizontal wire net.
The subject of data set [3] is mouse. Briefly: Inhibition of the motility in the tread wheel, mouse. Type of data set: in vivo. The note with it: for inhibition in vivo at 25 mg/kg: ip, 3 h, read-out: % Inhibition of the motility in the tread wheel by 25 mg/kg i.p.
The subject of data set [4] is mouse. Briefly: Prolongation of sleep induced by hexobarbital, mouse. Type of data set: in vivo. The note with it: ip, read-out: % prolongation of sleep induced by hexobarbital by 15 mg/kg i.p.
Description: d = Percent prolongation of the duration of sleep of mice, which were administered 75 mg/kg hexobarbital, compared with the sleep duration of controls.
For data set [5], the system named is mouse. Briefly: PD50, rotating rod, mouse. Type of data set: in vivo. To be noted: ip, read-out: PD50. The source says: The centrally inhibiting effect of the piperazinyl uracils of the invention in the mouse are apparent from Table IV. […] The selective action of the compounds of the invention on the central blood pressure mechanism can be used advantageously in human therapy in the treatment of hypertonic diseases.
a = Dose, at which an average of 50% of the mice fall from a rotating rod.

The test system of data set [6] is blood pressure increasing effect of adrenaline. The experiment in a line: Inhibition of the pressor effect of adrenaline, despinalized rat. It counts as in vivo. To be noted: iv, 0.001 mg/kg i.v. adrenaline, read-out: 50% inhibition of the press. effect after i.v. administration of adrenaline with.
For data set [7], the system named is blood pressure of the narcotized rat. The experiment in a line: Lowering of the blood pressure, narcotized rat. The note with it: 30% lowering. More on the design: unit not given here. Type of data set: in vivo.
The next data set is described as follows: in vivo. To be noted: mouse.
The test system of data set [8] is histamine spasm of the isolated small intestine of the guinea pig. Briefly: Antihistamine effect, histamine spasm of isolated small intestine.
The test system of data set [9] is carotid sinus relaxation reflex of the narcotized cat. Briefly: Inhibition of the carotid sinus reflex, narcotized cat. To be noted: Felis catus, iv; for ED30: 30% inhibition; for ED50: 50% inhibition. It counts as in vivo.
The subject of data set [10] is blood pressure of the narcotized cat. Briefly: Lowering of the blood pressure, narcotized cat. It counts as in vivo. The note with it: Felis catus, iv; for ED30: 30% lowering; for ED50: 50% lowering.
Data set [11] relates to blood pressure increasing effect of noradrenaline. The experiment in a line: Inhibition of the pressor effect of noradrenaline, despinalized rat. Type of data set: in vivo. To be noted: iv, 0.001 mg/kg i.v. noradrenaline, read-out: 50% inhibition of the press. effect after i.v. administration of noradrenaline with.
Where [12] appears, read: Mus musculus, po, read-out: SD50.
[13] abbreviates: mouse, oral, dose at which 50% show inhibition of spontaneous motility, sedation, muscle relaxation, loss of gripping, read-out: SD50 (the source's name).
Setting [14] is: mouse, 25 mg/kg i.p., 5 mg/kg d-amphetamine-sulfate, 180 minutes.
[15] abbreviates: mouse, 15 mg/kg i.p., 75 mg/kg hexobarbital, vs controls.
Where [16] appears, read: mouse, i.p., dose at which an average of 50% of the mice fall from a rotating rod.

Consider `Cc1c(N(C)C)c(=O)n(-c2ccccc2)n1C` [Aminophenazone, reference compound], for which, in the data set with mouse [1], the ED25 was 140 mg/kg.

Turning to `CNC1=Nc2ccc(Cl)cc2C(c2ccccc2)=[N+]([O-])C1` [Chlordiazepoxyde, reference compound], the ED50 was found to be 8 mg/kg with mouse [2] (setting [12]) and 38 mg/kg in the data set with mouse [5] (Mus musculus). Further, the inhibition in vivo at 25 mg/kg in the data set with mouse [3] (Mus musculus) came to 30%. The change in vivo at 15 mg/kg with mouse [4] (Mus musculus) stood at 324%.

As to `Cc1ccc(N2CCN(CCCNc3cc(=O)n(C)c(=O)n3C)CC2)cc1` [Example 1, 1,3-Dimethyl-4-(γ-[4-(p-tolyl)-piperazinyl-(1) ]-propylamino)-uracil], the ED50 in data set [6] came out at 1.45 mg/kg; with mouse [2] (setting [13]), 40 mg/kg; in the data set on mouse [5] (setting [16]) it was 28 mg/kg. In the data set with mouse [3] (setting [14]), the inhibition in vivo at 25 mg/kg turned out to be 36%. Further, the ED25 in the data set with mouse [1] is 5 mg/kg. The “lowering of the blood pressure by 30% by” value in data set [7] is reported as 2.9. In addition, the LD50 – broadly, the dose at which mortality reaches 50% – in the data set “in vivo” was found to be 200 mg/kg. Also, the change in vivo at 15 mg/kg with mouse [4] (setting [15]) was determined as 110%.

With `COc1ccc(OC)c(N2CCN(CCCNc3cc(=O)n(C)c(=O)n3C)CC2)c1` [Example 3, 1,3-Dimethyl-4-(γ-[4-(2,5-dimethoxyphenyl)-piperazinyl-(1)]-propylamino)-uracil], the ED50 in [6] stood at 2.1 mg/kg. For the same compound, the ED25 in the data set on mouse [1] came out at 7 mg/kg. Also, the “lowering of the blood pressure by 30% by” value in [7] is on record as 1.4. The compound also gave an LD50 in the data set “in vivo” of 430 mg/kg.

As to `CCOc1ccccc1N1CCN(CCCNc2cc(=O)n(C)c(=O)n2C)CC1` [Example 5, 1,3-Dimethyl-4-(γ[4-(o-ethoxyphenyl)-piperazinyl-(1)]-propylamino)-uracil], the ED50 amounted to 0.24 mg/kg in data set [6], 98 mg/kg in the data set on mouse [2] (setting [13]) and 26 mg/kg in the data set on mouse [5] (setting [16]). Besides, in the data set with mouse [3] (setting [14]), the inhibition in vivo at 25 mg/kg came to 46%. Further, the ED25 in the data set with mouse [1] came to 9 mg/kg. Besides, in [7], the “lowering of the blood pressure by 30% by” value is reported as 0.36. Further, the median lethal dose (LD50) in “in vivo” was 250 mg/kg. The change in vivo at 15 mg/kg with mouse [4] (setting [15]) was determined as 126%.

As to `COc1cccc(N2CCN(CCCNc3cc(=O)n(C)c(=O)n3C)CC2)c1` [Example 7, 1,3-Dimethyl-4-(γ-[4-(m-methoxyphenyl)-piperazinyl-(1)]-propylamino)-uracil], the “50% inhibition of the histamine spasm of the isolated small intestine of the guinea pig” value (“50% inhibition” below) in [8] is 2e-08 g/mL.

On to `COc1ccccc1N1CCN(CCCOc2cc(=O)n(C)c(=O)n2C)CC1` [Example 9, 1,3-Dimethyl-4-(γ-[4-(o-methoxyphenyl)-piperazinyl-(1)]-propyloxy)-uracil], for which the ED50 worked out at 0.15 mg/kg in data set [6]; 0.26 mg/kg in data set [9]; 30 mg/kg in the data set on mouse [2] (setting [13]); 0.14 mg/kg in [10]; 12 mg/kg in the data set with mouse [5] (setting [16]). For the same compound, the ED30 in data set [9] was 0.17 mg/kg; in data set [10], 0.03 mg/kg. In the data set with mouse [3] (setting [14]), the inhibition in vivo at 25 mg/kg was 79%. In the data set on mouse [1], the ED25 was 10 mg/kg. In [7], the “lowering of the blood pressure by 30% by” value was over 3.4. Also, the median lethal dose (LD50) in “in vivo” was 400 mg/kg. Further, in the data set with mouse [4] (setting [15]), the change in vivo at 15 mg/kg was 140%.

For `Cn1c(NCCCN2CCN(c3ccccc3)CC2)cc(=O)n(C)c1=O` [Example 11, 1,3-Dimethyl-4-(γ-[4-phenyl-piperazinyl-(1)]-propylamino)-uracil], the ED50 in [6] was 1 mg/kg; in the data set with mouse [2] (setting [13]), 70 mg/kg; in [11], over 2.5 mg/kg; in the data set on mouse [5] (setting [16]), 11 mg/kg. In addition, in the data set with mouse [3] (mouse, 12 mg/kg i.p., 5 mg/kg d-amphetamine-sulfate, 180 minutes), the “% Inhibition of the motility in the tread wheel by 12 mg/kg i.p.” value came out at 22%. Moreover, the “lowering of the blood pressure by 30% by” value in [7] turned out to be 0.48. Further, the LD50 in the data set “in vivo” worked out at 120 mg/kg. In addition, in the data set on mouse [4] (setting [15]), the change in vivo at 15 mg/kg stood at 130%.

As for `Cn1c(NCCCN2CCN(c3ccc(Cl)cc3)CC2)cc(=O)n(C)c1=O` [Example 13, 1,3-Dimethyl-4-(γ-[4-(p-chlorophenyl)-piperazinyl-(1)]-propylamino)-uracil], in data set [6], the ED50 is over 2.5 mg/kg. In data set [7], the “lowering of the blood pressure by 30% by” value is recorded as over 3.4. This compound also displayed an LD50 in the data set “in vivo” of 70 mg/kg. In addition, in data set [8], the “50% inhibition” value stood at 1e-08 g/mL.

As for `COc1ccccc1N1CCN(CCCNc2c(C)c(=O)n(C)c(=O)n2C)CC1` [Example 14, 1,3,5-Trimethyl-4-(γ-[4-(o-methoxyphenyl)-piperazinyl-(1)]-propylamino)-uracil], the ED50 in [6] came out at 0.045 mg/kg; in the data set on mouse [2] (setting [13]), 90 mg/kg; in [11] it was 1.2 mg/kg; in the data set on mouse [5] (setting [16]), 12 mg/kg. Also, in the data set with mouse [3] (setting [14]), the inhibition in vivo at 25 mg/kg was 21%. Also, the “lowering of the blood pressure by 30% by” value in [7] stood at 0.13. In addition, the 50% lethal dose (LD50) in “in vivo” came to 140 mg/kg. Moreover, the change in vivo at 15 mg/kg in the data set on mouse [4] (setting [15]) stood at 152%.

As to `CCCCc1c(NCCCN2CCN(c3ccccc3OC)CC2)n(C)c(=O)n(C)c1=O` [Example 15, 1,3-Dimethyl-4-(γ-[4-(o-methoxyphenyl)-piperazinyl-(1)]-propylamino)-5-n-butyl-uracil], the values for the ED50 in [6] and in [11] were 0.028 mg/kg and 2.8 mg/kg, respectively. For the same compound, in data set [7], the “lowering of the blood pressure by 30% by” value is 0.36. For the same compound, the LD50 in “in vivo” is 130 mg/kg.

On to `COc1ccccc1N1CCN(CCCNc2c([N+](=O)[O-])c(=O)n(C)c(=O)n2C)CC1` [Example 16, 1,3-dimethyl-4-(γ-[4-(o-methoxyphenyl)-piperazinyl-(1)]-propylamino)-5-nitro-uracil], for which the ED50 in data set [6] was 0.17 mg/kg; in data set [9] it was 2 mg/kg; in data set [10], 1 mg/kg. For the same compound, the ED30 came to 0.6 mg/kg in [9] and 0.21 mg/kg in data set [10]. For the same compound, in the data set with mouse [1], the ED25 was 10 mg/kg. In data set [7], the “lowering of the blood pressure by 30% by” value stood at 1.6. In addition, the LD50 in the data set “in vivo” came out at 600 mg/kg.

Take `COc1ccccc1N1CCN(C(C)CNc2cc(=O)n(C)c(=O)n2C)CC1` (stereo not drawn) [Example 17, 1,3-Dimethyl-4-(β-[4-(o-methoxyphenyl)-piperazinyl-(1)]-propylamino)-uracil]: the values for the ED50 in data set [6] and in data set [11] were 0.16 mg/kg and 2.3 mg/kg, respectively. In addition, in data set [7], the “lowering of the blood pressure by 30% by” value is listed as 3.0. In “in vivo”, this compound displayed an LD50 of 220 mg/kg.

As for `COc1ccccc1N1CCN(CCCNc2c(Br)c(=O)n(C)c(=O)n2C)CC1` [Example 18, 1,3-Dimethyl-4-(γ-[4-(o-methoxyphenyl)-piperazinyl-(1)]-propylamino)-5-bromo-uracil-dihydrobomide], in data set [9], the ED30 was 0.13 mg/kg and the ED50 worked out at 1.1 mg/kg. In [10], the ED30 was 0.15 mg/kg and the ED50 was over 0.5 mg/kg.

Regarding `COc1ccccc1N1CCN(CCCNc2c(N)c(=O)n(C)c(=O)n2C)CC1` [Example 20, 1,3-Dimethyl-4-(γ-[4-(o-methoxyphenyl)-piperazinyl-(1)]-propylamino)-5-amino-uracil], the ED50 in data set [6] was 0.045 mg/kg; in data set [9], 0.15 mg/kg; in the data set with mouse [2] (setting [13]), 80 mg/kg; in data set [10], 0.15 mg/kg; in data set [11], 1.6 mg/kg; in the data set on mouse [5] (setting [16]), 34 mg/kg. Moreover, the ED30 was 0.06 mg/kg in data set [9] and 0.05 mg/kg in [10]. For the same compound, the inhibition in vivo at 25 mg/kg in the data set on mouse [3] (setting [14]) is 42%. The “lowering of the blood pressure by 30% by” value in data set [7] is reported as 0.11. Also, the LD50 in the data set “in vivo” was determined as 500 mg/kg. In the data set with mouse [4] (setting [15]), the change in vivo at 15 mg/kg is 62%.

Turning to `Cc1ccccc1N1CCN(CCCNc2c(N=O)c(=O)n(C)c(=O)n2C)CC1` [Example 61, 1,3-Dimethyl-4-([4-(o-tolyl)-piperazinyl-(1)]-propyl-amino)-5-nitroso-uraci], the ED50 in data set [6] was found to be 0.39 mg/kg; in [11] it was 3.7 mg/kg. Also, in [7], the “lowering of the blood pressure by 30% by” value worked out at 0.5. The same compound showed an LD50 in “in vivo” of 600 mg/kg.

`CCCC(C)(COC(N)=O)COC(N)=O` [Meprobamate, reference compound]: the results for the ED50 with mouse [2] (setting [12]) and in the data set on mouse [5] (Mus musculus) were 300 mg/kg and 95 mg/kg, respectively. The inhibition in vivo at 25 mg/kg in the data set on mouse [3] (Mus musculus) amounted to 28%. Moreover, the change in vivo at 15 mg/kg with mouse [4] (Mus musculus) amounted to 18%.

With `CN1CCC(OC(c2ccccc2)c2ccccc2)CC1` [Piprinhydrinate, reference compound], the “50% inhibition” value in [8] came to 1.5e-08 g/mL.
